In one experiment the target is human TLR7 (Homo sapiens (Human), UniProt Q9NYK1). The experiment in a line: TLR7 inhibition reporter assay (HEK-Blue SEAP). The format is cell-based. The conditions noted are these: HEK-Blue cells overexpressing human TLR7, gardiquimod 7.5 μM stimulation, SEAP reporter.
The next experiment deals with human TLR8 (Homo sapiens (Human), UniProt Q9NR97). The experiment in a line: TLR8 inhibition reporter assay (HEK-Blue SEAP).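 Also: SEAP driven by IFN-β minimal promoter carrying NF-κB and AP-1 sites, compounds dosed 0.05 nM to 50 µM for 22 h, inhibition scaled between agonist-plus-DMSO and reference-inhibitor wells.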 The conditions noted are these: read-out: TLR8 IC50; HEK-Blue cells overexpressing human TLR8, R848 15.9 μM stimulation, SEAP reporter.
The next experiment deals with human TLR9 (Homo sapiens (Human), UniProt Q9NR96). Put plainly: TLR9 inhibition reporter assay (HEK-Blue SEAP).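 Also: SEAP driven by an IFN-β minimal promoter with NF-κB and AP-1 sites, read after 22 h, compounds dosed 0.05 nM–50 µM, inhibition scaled between agonist plus DMSO and reference-inhibitor wells.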 To be noted: read-out: TLR9 IC50; HEK-Blue cells overexpressing human TLR9, ODN2006 5 nM stimulation, SEAP reporter.

43 compounds from patent US10544143B2, “4-azaindole compounds” (BRISTOL-MYERS SQUIBB COMPANY, priority 2017, dated 2020) can be followed below.

Where only a bound is given, the exact number is not on record here.

Chain of human TLR8 (Q9NR97 27-1041): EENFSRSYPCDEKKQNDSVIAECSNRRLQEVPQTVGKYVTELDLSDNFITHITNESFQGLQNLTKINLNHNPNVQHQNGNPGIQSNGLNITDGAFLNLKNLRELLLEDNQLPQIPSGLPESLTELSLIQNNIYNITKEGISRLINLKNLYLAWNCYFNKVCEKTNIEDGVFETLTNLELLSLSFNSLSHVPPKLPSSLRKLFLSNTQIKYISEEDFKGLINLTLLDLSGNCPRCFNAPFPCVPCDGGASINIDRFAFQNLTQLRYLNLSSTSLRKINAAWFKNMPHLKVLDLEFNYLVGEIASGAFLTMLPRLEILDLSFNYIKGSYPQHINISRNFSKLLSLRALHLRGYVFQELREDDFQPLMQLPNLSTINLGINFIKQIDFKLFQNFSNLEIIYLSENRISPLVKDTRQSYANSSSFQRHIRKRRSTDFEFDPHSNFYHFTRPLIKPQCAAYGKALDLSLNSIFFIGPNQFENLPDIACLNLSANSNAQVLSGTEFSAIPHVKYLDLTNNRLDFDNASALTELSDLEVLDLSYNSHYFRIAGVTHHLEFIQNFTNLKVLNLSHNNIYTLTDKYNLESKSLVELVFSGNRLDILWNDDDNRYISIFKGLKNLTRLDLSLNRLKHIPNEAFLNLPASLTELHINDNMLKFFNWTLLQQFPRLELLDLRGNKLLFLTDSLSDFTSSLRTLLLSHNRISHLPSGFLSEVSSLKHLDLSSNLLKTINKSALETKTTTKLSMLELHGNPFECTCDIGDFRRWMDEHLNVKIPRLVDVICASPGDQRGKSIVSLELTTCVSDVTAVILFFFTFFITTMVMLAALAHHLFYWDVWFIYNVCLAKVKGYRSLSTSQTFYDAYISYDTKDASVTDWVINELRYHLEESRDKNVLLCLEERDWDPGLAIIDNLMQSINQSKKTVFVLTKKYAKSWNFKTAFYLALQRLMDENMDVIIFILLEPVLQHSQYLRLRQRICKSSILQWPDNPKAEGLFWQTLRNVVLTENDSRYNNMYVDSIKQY
Chain of human TLR9 (Q9NR96 26-1032): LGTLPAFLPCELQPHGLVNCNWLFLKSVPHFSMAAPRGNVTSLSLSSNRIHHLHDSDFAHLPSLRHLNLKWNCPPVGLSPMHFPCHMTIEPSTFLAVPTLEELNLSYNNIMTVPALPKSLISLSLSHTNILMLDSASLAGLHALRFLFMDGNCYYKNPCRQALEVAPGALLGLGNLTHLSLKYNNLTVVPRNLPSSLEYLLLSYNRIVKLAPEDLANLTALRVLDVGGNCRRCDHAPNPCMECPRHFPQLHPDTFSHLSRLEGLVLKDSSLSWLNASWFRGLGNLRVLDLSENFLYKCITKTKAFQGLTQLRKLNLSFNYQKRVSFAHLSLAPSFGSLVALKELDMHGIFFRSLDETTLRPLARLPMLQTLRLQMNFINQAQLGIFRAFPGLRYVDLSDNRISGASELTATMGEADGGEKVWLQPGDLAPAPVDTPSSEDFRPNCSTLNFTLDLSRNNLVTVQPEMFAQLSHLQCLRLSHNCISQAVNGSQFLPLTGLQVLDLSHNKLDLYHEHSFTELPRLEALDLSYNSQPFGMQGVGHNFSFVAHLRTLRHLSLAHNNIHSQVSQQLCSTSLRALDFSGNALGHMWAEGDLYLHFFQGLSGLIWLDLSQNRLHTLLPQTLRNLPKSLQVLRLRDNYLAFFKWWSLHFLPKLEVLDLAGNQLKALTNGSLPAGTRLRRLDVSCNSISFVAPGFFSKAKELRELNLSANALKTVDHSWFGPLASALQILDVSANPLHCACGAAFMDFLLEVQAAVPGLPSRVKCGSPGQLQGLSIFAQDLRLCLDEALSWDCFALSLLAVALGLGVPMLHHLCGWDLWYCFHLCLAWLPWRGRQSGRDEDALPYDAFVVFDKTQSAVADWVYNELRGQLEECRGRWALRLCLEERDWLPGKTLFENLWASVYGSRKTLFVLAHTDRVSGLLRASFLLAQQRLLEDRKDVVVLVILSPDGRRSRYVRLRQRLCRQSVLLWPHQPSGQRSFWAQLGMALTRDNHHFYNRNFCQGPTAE
Chain of human TLR7 (Q9NYK1 27-1049): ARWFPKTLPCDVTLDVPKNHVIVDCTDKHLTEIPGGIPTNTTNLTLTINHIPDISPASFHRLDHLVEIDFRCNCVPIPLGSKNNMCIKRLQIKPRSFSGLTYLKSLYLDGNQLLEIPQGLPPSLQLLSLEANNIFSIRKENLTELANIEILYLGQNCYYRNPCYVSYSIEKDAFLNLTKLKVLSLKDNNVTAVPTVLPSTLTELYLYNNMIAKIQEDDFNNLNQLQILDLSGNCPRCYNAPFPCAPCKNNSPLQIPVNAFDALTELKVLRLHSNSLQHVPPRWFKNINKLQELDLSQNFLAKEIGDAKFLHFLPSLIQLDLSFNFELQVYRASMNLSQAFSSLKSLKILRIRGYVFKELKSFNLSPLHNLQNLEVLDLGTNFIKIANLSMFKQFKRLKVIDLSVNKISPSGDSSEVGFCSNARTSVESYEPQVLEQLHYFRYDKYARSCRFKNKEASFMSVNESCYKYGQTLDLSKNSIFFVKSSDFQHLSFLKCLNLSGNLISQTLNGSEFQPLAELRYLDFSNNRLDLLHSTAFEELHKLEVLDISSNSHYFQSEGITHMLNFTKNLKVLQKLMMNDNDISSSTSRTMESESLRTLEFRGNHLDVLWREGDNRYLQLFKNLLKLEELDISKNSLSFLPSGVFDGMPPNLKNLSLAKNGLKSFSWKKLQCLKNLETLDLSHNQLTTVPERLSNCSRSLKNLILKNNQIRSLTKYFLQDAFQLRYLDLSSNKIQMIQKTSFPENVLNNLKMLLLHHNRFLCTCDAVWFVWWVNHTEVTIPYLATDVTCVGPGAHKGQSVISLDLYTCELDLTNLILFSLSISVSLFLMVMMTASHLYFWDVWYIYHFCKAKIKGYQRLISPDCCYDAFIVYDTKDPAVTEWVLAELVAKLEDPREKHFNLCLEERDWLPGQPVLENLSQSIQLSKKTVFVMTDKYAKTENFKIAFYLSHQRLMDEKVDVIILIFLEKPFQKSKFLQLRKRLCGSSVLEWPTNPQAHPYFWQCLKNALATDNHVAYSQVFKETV

On to `COc1cc(-c2[nH]c3ccc(C4CCC(N(C)C5CC5)CC4)nc3c2C(C)C)cn2ncnc12` (stereo not drawn) [Example 171], for which the IC50 on human TLR7 came to 0.45 nM; on human TLR8, 1.8 nM; at human TLR9, 560 nM.
For the compound `COc1cc(-c2[nH]c3ccc(C4CCC(N(C)C5CC5)CC4)nc3c2C(C)C)cn2ncnc12` (stereo not drawn) [Example 172], the values for the IC50 against human TLR7, on human TLR8 and at human TLR9 were 1.9 nM, 13 nM and 1790 nM, respectively.
As to `COc1cc(-c2[nH]c3ccc(C4CCC(N5CCC[C@H]5CO)CC4)nc3c2C(C)C)cn2ncnc12` (stereo partly drawn) [Example 173], the figures for the IC50 against human TLR7, at human TLR8 and on human TLR9 were 2 nM, 10 nM and 578 nM, respectively.
With `COc1cc(-c2[nH]c3ccc(C4CCC(N5CCCC5)CC4)nc3c2C(C)C)cn2ncnc12` (stereo not drawn) [Example 174], the values for the IC50 at human TLR7, on human TLR8 and at human TLR9 were 4.3 nM, 37 nM and 1470 nM, respectively.
For `COc1cc(-c2[nH]c3ccc(C4CCC(N(C)CCC#N)CC4)nc3c2C(C)C)cn2ncnc12` (stereo not drawn) [Example 175], the IC50 at human TLR7 stood at 0.35 nM; on human TLR8, 2 nM; on human TLR9, 926 nM.
Regarding `COc1cc(-c2[nH]c3ccc(C4CCC(=O)CC4)nc3c2C(C)C)cn2ncnc12` [Example 176], the IC50 turned out to be 5.2 nM against human TLR7, 84 nM on human TLR8 and 16000 nM on human TLR9.
For the compound `COc1cc(-c2[nH]c3ccc(C4CCC(N(C)C)CC4)nc3c2C(C)C)cn2ncnc12` (stereo not drawn) [Example 177], the half-inhibitory concentration (IC50) against human TLR7 came out at 0.28 nM; on human TLR8, 2.5 nM; at human TLR9 it was 148 nM.
Take `COc1cc(-c2[nH]c3ccc(C4CCC(NC5COC5)CC4)nc3c2C(C)C)cn2ncnc12` (stereo not drawn) [Example 178]: the IC50 was 0.48 nM at human TLR7, 1.8 nM at human TLR8 and 895 nM at human TLR9.
`COc1cc(-c2[nH]c3ccc(C4CCC(N(C)C)CC4)nc3c2C(C)C)cn2ncnc12` (stereo not drawn) [Example 179]: the IC50 on human TLR7 worked out at 0.92 nM; on human TLR8, 7 nM; at human TLR9 it was 1740 nM.
For `COc1cc(-c2[nH]c3ccc(C4CCC(NC5COC5)CC4)nc3c2C(C)C)cn2ncnc12` (stereo not drawn) [Example 180] the same measures were 2.8 nM, 11 nM and 1870 nM.
For `COc1cc(-c2[nH]c3ccc(C4CCC(NCC(=O)N(C)C)CC4)nc3c2C(C)C)cn2ncnc12` (stereo not drawn) [Example 181] the same measures were 1.7 nM, 13 nM and 561 nM.
On to `CC(C)c1c(-c2cn(C)c3ncccc23)[nH]c2ccc(C3CCC(NCC(=O)N(C)C)CC3)nc12` (stereo not drawn) [Example 182], for which the figures for the IC50 on human TLR7, on human TLR8 and on human TLR9 were 0.48 nM, 1.1 nM and 301 nM, respectively.
Turning to `CC(C)c1c(-c2cn(C)c3ncccc23)[nH]c2ccc(C3CCC(NCC(=O)N(C)C)CC3)nc12` (stereo not drawn) [Example 183], the IC50 on human TLR7 is 5.6 nM; at human TLR8, 15 nM; at human TLR9, 1030 nM.
Consider `CC(C)c1c(-c2cn(C)c3ncccc23)[nH]c2ccc(C3CCC(NC4COC4)CC3)nc12` (stereo not drawn) [Example 184], for which the values for the IC50 against human TLR7, at human TLR8 and at human TLR9 were 8.8 nM, 18 nM and 2050 nM, respectively.
For `CC(C)c1c(-c2cn(C)c3ncccc23)[nH]c2ccc(C3CCC(NC4COC4)CC3)nc12` (stereo not drawn) [Example 185] the same measures were 38 nM, 110 nM and 10300 nM.
Take `COc1cc(-c2[nH]c3ccc(C4CCC(NC5COC5)CC4)nc3c2C(C)C)cn2ncnc12` (stereo not drawn) [Example 186]: the values for the IC50 against human TLR7, on human TLR8 and on human TLR9 were 2.2 nM, 9.3 nM and 1010 nM, respectively.
With `COc1cc(-c2[nH]c3ccc(C4CCC(N(C)C)CC4)nc3c2C(C)C)cn2ncnc12` (stereo not drawn) [Example 187], the IC50 came out at 2.1 nM against human TLR7, 20 nM at human TLR8 and 4220 nM on human TLR9.
In the case of `CNC1CCC(c2ccc3[nH]c(-c4cc(OC)c5ncnn5c4)c(C(C)C)c3n2)CC1` (stereo not drawn) [Example 188], the concentration for half-maximal inhibition (IC50) stood at 0.29 nM against human TLR7, 2.5 nM on human TLR8 and 158 nM at human TLR9.
On to `CNC1CCC(c2ccc3[nH]c(-c4cc(OC)c5ncnn5c4)c(C(C)C)c3n2)CC1` (stereo not drawn) [Example 189], for which the IC50 turned out to be 1.6 nM at human TLR7, 6.7 nM on human TLR8 and 313 nM at human TLR9.
On to `COc1cc(-c2[nH]c3ccc(C4CCC(NCc5cnc(C)cn5)CC4)nc3c2C(C)C)cn2ncnc12` (stereo not drawn) [Example 190], for which the IC50 at human TLR7 was 0.8 nM; on human TLR8, 2.8 nM; at human TLR9 it was 353 nM.
With `COc1cc(-c2[nH]c3ccc(C4CCC(N(C)CCO)CC4)nc3c2C(C)C)cn2ncnc12` (stereo not drawn) [Example 191], the IC50 at human TLR7 is 0.9 nM; at human TLR8, 2.7 nM; at human TLR9 it was 202 nM.
As for `COc1cc(-c2[nH]c3ccc(C4CCC(N5CCCC5)CC4)nc3c2C(C)C)cn2ncnc12` (stereo not drawn) [Example 192], the results for the IC50 on human TLR7, at human TLR8 and on human TLR9 were 3.1 nM, 19 nM and 1110 nM, respectively.
For `COc1cc(-c2[nH]c3ccc(C4CCC(NC(C)C)CC4)nc3c2C(C)C)cn2ncnc12` (stereo not drawn) [Example 193] the same measures were 1.5 nM, 6 nM and 648 nM.
On to `COc1cc(-c2[nH]c3ccc(C4CCC(N5CCOCC5)CC4)nc3c2C(C)C)cn2ncnc12` (stereo not drawn) [Example 194], for which the concentration for half-maximal inhibition (IC50) against human TLR7 came to 8.6 nM; on human TLR8, 47 nM; on human TLR9, 3590 nM.
Turning to `COc1cc(-c2[nH]c3ccc(C4CCC(N5CCCC5)CC4)nc3c2C(C)C)cn2ncnc12` (stereo not drawn) [Example 195], the results for the IC50 at human TLR7, at human TLR8 and at human TLR9 were 0.8 nM, 4.3 nM and 530 nM, respectively.
Consider `COc1cc(-c2[nH]c3ccc(C4CCC(NCc5cnc(C)cn5)CC4)nc3c2C(C)C)cn2ncnc12` (stereo not drawn) [Example 196], for which the IC50 at human TLR7 is 1.7 nM; at human TLR8, 10 nM; on human TLR9 it was 712 nM.
`COc1cc(-c2[nH]c3ccc(C4CCC(N5CCC[C@H]5CO)CC4)nc3c2C(C)C)cn2ncnc12` (stereo partly drawn) [Example 197]: the IC50 was 0.34 nM on human TLR7, 1.7 nM on human TLR8 and 134 nM at human TLR9.
Consider `COCCN(C)C1CCC(c2ccc3[nH]c(-c4cc(OC)c5ncnn5c4)c(C(C)C)c3n2)CC1` (stereo not drawn) [Example 198], for which the IC50 against human TLR7 turned out to be 1 nM; at human TLR8, 7.8 nM; at human TLR9, 1140 nM.
For `COc1cc(-c2[nH]c3ccc(C4CCC(N5CCCC5)CC4)nc3c2C(C)C)cn2ncnc12` (stereo not drawn) [Example 199], the concentration for half-maximal inhibition (IC50) came out at 0.16 nM against human TLR7, 6.4 nM on human TLR8 and 1190 nM at human TLR9.
With `CC(C)c1c(-c2cn(C)c3ncccc23)[nH]c2ccc(C3CCC(N(C)CC(=O)N(C)C)CC3)nc12` (stereo not drawn) [Example 200], the IC50 on human TLR7 is 1.8 nM; on human TLR8, 8.5 nM; at human TLR9, 773 nM.
In the case of `CC(C)c1c(-c2cn(C)c3ncccc23)[nH]c2ccc(C3CCC(N(C)CC(=O)N(C)C)CC3)nc12` (stereo not drawn) [Example 201], the IC50 is 1.5 nM against human TLR7, 6 nM on human TLR8 and 570 nM on human TLR9.
For `COc1cc(-c2[nH]c3ccc(C4CCC(N(C)Cc5cnc(C)cn5)CC4)nc3c2C(C)C)cn2ncnc12` (stereo not drawn) [Example 202] the same measures were 3.8 nM, 28 nM and 2030 nM.
`COc1cc(-c2[nH]c3ccc(C4CCC(N(C)Cc5cnc(C)cn5)CC4)nc3c2C(C)C)cn2ncnc12` (stereo not drawn) [Example 203]: the IC50 was found to be 2 nM against human TLR7, 7.9 nM at human TLR8 and 537 nM at human TLR9.
As to `COc1cc(-c2[nH]c3ccc(C4CCC(NCc5cnco5)CC4)nc3c2C(C)C)cn2ncnc12` (stereo not drawn) [Example 204], the IC50 was found to be 0.98 nM against human TLR7, 2.9 nM at human TLR8 and 1330 nM on human TLR9.
Consider `Cc1cnc(CNC2CCC(c3ccc4[nH]c(-c5cn(C)c6ncccc56)c(C(C)C)c4n3)CC2)cn1` (stereo not drawn) [Example 205], for which the IC50 against human TLR7 stood at 0.42 nM; on human TLR8, 1 nM; at human TLR9, 134 nM.
For the compound `COc1cc(-c2[nH]c3ccc(C4CCC(NCc5cnco5)CC4)nc3c2C(C)C)cn2ncnc12` (stereo not drawn) [Example 206], the results for the IC50 at human TLR7, at human TLR8 and on human TLR9 were 9.5 nM, 22 nM and 2390 nM, respectively.
For `Cc1cnc(CNC2CCC(c3ccc4[nH]c(-c5cn(C)c6ncccc56)c(C(C)C)c4n3)CC2)cn1` (stereo not drawn) [Example 207] the same measures were 1.9 nM, 4.4 nM and 253 nM.
For `COc1cc(-c2[nH]c3ccc(C4CCC(N(C)Cc5ncccn5)CC4)nc3c2C(C)C)cn2ncnc12` (stereo not drawn) [Example 208] the same measures were 2.2 nM, 16 nM and 1350 nM.
As for `COc1cc(-c2[nH]c3ccc(C4CCC(N(C)Cc5ncccn5)CC4)nc3c2C(C)C)cn2ncnc12` (stereo not drawn) [Example 209], the IC50 against human TLR7 stood at 0.71 nM; at human TLR8 it was 4 nM; on human TLR9, 641 nM.
With `CNC(=O)CN(C)C1CCC(c2ccc3[nH]c(-c4cc(OC)c5ncnn5c4)c(C(C)C)c3n2)CC1` (stereo not drawn) [Example 210], the IC50 at human TLR7 is more than 3120 nM; at human TLR8 it was more than 3120 nM; at human TLR9, more than 50000 nM.
With `COc1cc(-c2[nH]c3ccc(C4CCC(N(C)CC(=O)N(C)C)CC4)nc3c2C(C)C)cn2ncnc12` (stereo not drawn) [Example 211], the concentration for half-maximal inhibition (IC50) against human TLR7 is 1.1 nM; on human TLR8, 6.8 nM; at human TLR9, 585 nM.
For `COc1cc(-c2[nH]c3ccc(C4CCC(N(C)CC(N)=O)CC4)nc3c2C(C)C)cn2ncnc12` (stereo not drawn) [Example 212] the same measures were 3.4 nM, 6.8 nM and 1190 nM.
In the case of `COCc1cc(-c2[nH]c3ccc(C4CCC(NCC(=O)N(C)C)CC4)nc3c2C(C)C)cn2ncnc12` (stereo not drawn) [Example 213], the results for the IC50 at human TLR7, at human TLR8 and on human TLR9 were 9.5 nM, 17 nM and 706 nM, respectively.
